The results in this text go back to paper PMC7990224 (PLoS Pathogens, 2021).

Where “and” joins values, the source holds several entries; their conditions need not be identical. Identical values can stand only once.

The test system of this test is SARS-CoV-2 GFP/ΔN trVLP. The class given is cell-based.

Consider `CC(C)c1nc(CN(C)C(=O)N[C@H](C(=O)N[C@@H](Cc2ccccc2)C[C@H](O)[C@H](Cc2ccccc2)NC(=O)OCc2cncs2)C(C)C)cs1` [Ritonavir], for which the midpoint of inhibition, the IC50, lay at 7.54 µM.

Turning to `Cc1cccc(C)c1OCC(=O)N[C@@H](Cc1ccccc1)[C@@H](O)C[C@H](Cc1ccccc1)NC(=O)[C@H](C(C)C)N1CCCNC1=O` [Lopinavir], the IC50 is 8.7 µM and 8.75 µM.

As for `CCC(CC)COC(=O)[C@H](C)N[P@](=O)(OC[C@H]1O[C@@](C#N)(c2ccc3c(N)ncnn23)[C@H](O)[C@@H]1O)Oc1ccccc1` [Remdesivir], the IC50 is 0.0625 µM. In other words, the double-digit nanomolar range.

GC376 registered an IC50 of 4.5 µM.
